Test results taken from article PMC11538602, “Substrate binding and catalytic mechanism of UDP-α-D-galactofuranose: β-galactofuranoside β-(1→5)-galactofuranosyltransferase GfsA” (PNAS Nexus, 2024).

Legend:
GfsA = target: T1, GfsA (Aspergillus fumigatus, UniProt B0YDN6); assay: X-ray crystal structure, […] A; type: binding; settings: crystal with UDP and Mn2+ soaked with 50 mM pNP-Galf, pNP group not resolved, only Galf modelled; acceptor site, D335 and D360
T1 construct: gene AFUB_096220; soluble catalytic domain, residues 43-537 without transmembrane segment; N-terminal 6xHis-tag (pET15b); E. coli Rosetta-gami B (DE3); 58 kDa; homodimer (120 kDa by gel filtration); GT31

[1] = target: GfsA (UDP-α-D-galactofuranose: β-galactofuranoside β-(1→5)-galactofuranosyltransferase) from Aspergillus fumigatus, soluble catalytic domain, residues 43–537 (Aspergillus fumigatus); assay: SEC; gel filtration chromatography of GfsA purified with Ni-agarose; broad single peak, estimated 120 kDa against 58 kDa for the monomer

Compound	X-ray crystal structure, 2.37 A (GfsA)	stoichiometry N [1]
OC[C@@H](O)[C@@H]1O[C@@H](O)[C@H](O)[C@H]1O [Galf]	Galf, was present within the depression and hydrogen bonded with D335 and D360	–
GfsA (UDP-α-D-galactofuranose: β-galactofuranoside β-(1→5)-galactofuranosyltransferase) from Aspergillus fumigatus, soluble catalytic domain, residues 43–537 (enzyme)	–	2
